Drawing on ChEMBL document CHEMBL5331124, “Degradation of Hexokinase 2 Blocks Glycolysis and Induces GSDME-Dependent Pyroptosis to Amplify Immunogenic Cell Death for Breast Cancer Therapy” (J Med Chem, 2023), this text covers Activity, inhibition and DC50 for one molecule.

The subject of series [1] is MDA-MB-231. Nature of the series: Cytotoxicity against human MDA-MB-231 cells assessed as inhibition of cell growth at 1 to 100 uM incubated for 48 hrs by CCK-8 assay. The conditions noted are these: dose 1-100 µM. It counts as functional, cell-based. For orientation: Formazan colour is commonly taken as a measure of viable cells.
The subject of a further series is HUVEC-T1 cell. Kind of series: Inhibition of colony formation in human HUVEC-T1 cell at 5 to 20 uM incubated for 48 hrs by giemsa staining based analysis. It counts as functional. Conditions: dose 5-20 µM.
Series [2] deals with T1, Hexokinase-2 (Homo sapiens) (UniProt P52789).
T1 sequence (whole entry): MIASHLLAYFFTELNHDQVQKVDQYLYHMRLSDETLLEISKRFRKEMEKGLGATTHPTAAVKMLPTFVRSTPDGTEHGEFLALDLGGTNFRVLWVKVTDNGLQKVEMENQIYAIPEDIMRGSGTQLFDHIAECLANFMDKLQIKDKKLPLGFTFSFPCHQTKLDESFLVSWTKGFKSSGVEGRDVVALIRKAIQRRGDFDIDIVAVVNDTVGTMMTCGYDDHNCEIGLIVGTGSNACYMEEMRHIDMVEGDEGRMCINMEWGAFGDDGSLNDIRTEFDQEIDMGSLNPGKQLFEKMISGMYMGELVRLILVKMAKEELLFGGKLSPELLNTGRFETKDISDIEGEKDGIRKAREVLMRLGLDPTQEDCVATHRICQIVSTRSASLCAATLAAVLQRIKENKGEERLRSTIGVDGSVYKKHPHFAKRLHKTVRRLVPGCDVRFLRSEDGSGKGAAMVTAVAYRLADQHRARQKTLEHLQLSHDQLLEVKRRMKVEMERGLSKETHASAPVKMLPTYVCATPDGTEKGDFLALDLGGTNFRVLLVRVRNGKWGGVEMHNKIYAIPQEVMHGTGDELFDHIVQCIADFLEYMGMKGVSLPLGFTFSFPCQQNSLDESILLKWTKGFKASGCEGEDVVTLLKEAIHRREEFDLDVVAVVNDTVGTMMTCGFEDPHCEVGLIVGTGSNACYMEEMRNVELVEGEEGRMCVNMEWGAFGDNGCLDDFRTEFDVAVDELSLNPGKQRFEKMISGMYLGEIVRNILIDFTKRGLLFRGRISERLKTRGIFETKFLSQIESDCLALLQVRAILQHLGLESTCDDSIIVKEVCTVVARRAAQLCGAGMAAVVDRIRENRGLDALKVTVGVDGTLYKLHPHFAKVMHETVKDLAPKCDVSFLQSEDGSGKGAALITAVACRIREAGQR
Nature of the series: (§1) Induction of HK2 degradation in human MDA-MB-231 cells measured for 36 hrs. It counts as cell-based.

The target in the next series is T2, Hexokinase-2 (Homo sapiens, UniProt P52789).
T2 sequence (P52789 whole entry): T1 sequence (whole entry)
The description is as §1. The class given is cell-based.

The target in series [3] is Protein cereblon/Hexokinase-2 (Homo sapiens) (UniProt P52789+Q96SW2). Nature of the series: PROTAC activity at CRBN/HK2 in human MDA-MB-231 cells assessed as HK2 degradation at 20 uM incubated for 36 hrs. The class given is cell-based.
Chain of Protein cereblon/Hexokinase-2 (Homo sapiens) (Q96SW2 whole entry, looked up, one chain of several): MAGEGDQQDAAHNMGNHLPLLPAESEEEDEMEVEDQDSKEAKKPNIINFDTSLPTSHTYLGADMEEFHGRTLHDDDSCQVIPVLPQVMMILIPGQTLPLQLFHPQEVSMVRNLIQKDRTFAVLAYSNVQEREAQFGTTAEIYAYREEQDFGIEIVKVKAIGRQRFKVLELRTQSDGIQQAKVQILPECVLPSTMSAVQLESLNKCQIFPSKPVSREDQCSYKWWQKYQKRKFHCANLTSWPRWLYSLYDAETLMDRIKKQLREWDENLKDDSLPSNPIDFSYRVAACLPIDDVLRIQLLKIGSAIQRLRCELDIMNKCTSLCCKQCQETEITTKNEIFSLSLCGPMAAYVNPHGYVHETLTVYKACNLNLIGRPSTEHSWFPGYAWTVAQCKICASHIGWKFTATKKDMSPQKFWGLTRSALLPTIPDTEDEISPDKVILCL
Series [4] has as its target Protein cereblon/Hexokinase-2 (Mus musculus) (UniProt O08528+Q8C7D2). Kind of series: PROTAC activity at CRBN/HK2 in mouse 4T1 cells assessed as HK2 degradation at 20 uM incubated for 36 hrs. It counts as cell-based.
The subject of series [5] is 4T1. Kind of series: Inhibition of glycolysis in mouse 4T1 cells assessed as reduction in extracellular acidification rate at 20 uM incubated for 1 to 4 hrs by seahorse analyzer method. It counts as functional, cell-based. Conditions: time 1-4 hrs.
Series [6] concerns 4T1. Nature of the series: Induction of mitochondrial damage in mouse 4T1 cells assessed as reduction in ATP level at 20 uM measured for 36 hrs. It counts as functional, cell-based.
In series [7] the test system is 4T1. Nature of the series: Induction of pyroptosis in mouse 4T1 cells assessed as increase in full length GSDME level at 20 uM incubated for 36 hrs. It counts as functional, cell-based.
Series [8] relates to 4T1. Kind of series: Induction of pyroptosis in mouse 4T1 cells assessed as late apoptotic cells at 20 uM incubated for 36 hrs by annexin V-FITC staining based flow cytometry analysis (Rvb =13.6 %). The class given is functional. On the technique in general: Flow cytometry measures light scatter and fluorescence of single cells or particles in a stream.
Series [9] has as its system 4T1. Kind of series: Antitumor immunity against mouse 4T1 cells implanted in BALB/c mouse model assessed as increase in LDH release in cell supernatant at 20 uM measured for 36 hrs by ELISA analysis. It counts as functional, cell-based. On the technique in general: LDH leaks from cells whose membrane has failed.
In series [10] the test system is 4T1. Nature of the series: Antitumor activity against mouse 4T1 cells implanted in BALB/c mouse model assessed as nucleus damage at 50 mg/kg, ip measured after 25 days by TUNEL staining based analysis. The class given is functional, organism-based. The conditions noted are these: time 25.0 day.
Series [11] relates to 4T1. Kind of series: Antitumor immunity against mouse 4T1 cells implanted in BALB/c mouse model assessed as downregulation of TGF-beta expression in mouse tumor by ELISA analysis. It counts as functional, cell-based.
In series [12] the test system is 4T1. Nature of the series: Antitumor immunity against mouse 4T1 cells implanted in BALB/c mouse model assessed as increase in cleaved caspase-3 expression in tumor. The class given is functional, cell-based.
The test system of series [13] is MDA-MB-231. Kind of series: Antitumor activity against human MDA-MB-231 cells xenografted in BALB/c nude mouse assessed as reduction in HK2 expression level at 50 mg/kg, ip measured after 28 days. It counts as functional, organism-based. The conditions noted are these: time 28.0 day.
For series [14], the system named is MDA-MB-231. Nature of the series: Antitumor activity against human MDA-MB-231 cells xenografted in BALB/c nude mouse assessed as increase in cleaved caspase-3 level at 50 mg/kg, ip measured after 28 days. The conditions noted are these: time 28.0 day. The class given is functional, organism-based.
A short description of series [15]: Toxicity in BALB/c mouse implanted with mouse 4T1 cells assessed as effect on platelet count at 50 mg/kg, ip measured after 25 days in presence of cisplatin by routine blood test. The class given is organism-based. The conditions noted are these: in vivo, 600 h, time 25 day.
Series [16] is described as follows: Toxicity in BALB/c mouse implanted with mouse 4T1 cells assessed as effect on hematocrit level at 50 mg/kg, ip measured after 25 days in presence of cisplatin by routine blood test. It counts as organism-based. Conditions: in vivo, 600 h, time 25 day.
A short description of series [17]: Toxicity in BALB/c mouse implanted with mouse 4T1 cells assessed as effect on mean corpuscular hemoglobin at 50 mg/kg, ip measured after 25 days in presence of cisplatin by routine blood test. It counts as organism-based. Conditions: in vivo, 600 h, time 25 day.
The nature of series [18]: Toxicity in BALB/c mouse implanted with mouse 4T1 cells assessed as pathological changes in heart at 50 mg/kg, ip measured after 25 days in presence of cisplatin by Hematoxylin -eosin staining based analysis. It counts as organism-based. Conditions: in vivo, 600 h, time 25 day.
Series [19] is described as follows: Toxicity in BALB/c mouse implanted with mouse 4T1 cells assessed as pathological changes in liver at 50 mg/kg, ip measured after 25 days in presence of cisplatin by Hematoxylin -eosin staining based analysis. The class given is organism-based. The conditions noted are these: in vivo, 600 h, time 25 day.
Series [20] can be described thus: Toxicity in BALB/c mouse implanted with mouse 4T1 cells assessed as pathological changes in kidney at 50 mg/kg, ip measured after 25 days in presence of cisplatin by Hematoxylin -eosin staining based analysis. The class given is organism-based. Conditions: in vivo, 600 h, time 25 day.

Activity calls are given as the source filed them. The rule behind the calls is not given here.

Chain of Protein cereblon/Hexokinase-2 (Mus musculus) (O08528 whole entry, looked up): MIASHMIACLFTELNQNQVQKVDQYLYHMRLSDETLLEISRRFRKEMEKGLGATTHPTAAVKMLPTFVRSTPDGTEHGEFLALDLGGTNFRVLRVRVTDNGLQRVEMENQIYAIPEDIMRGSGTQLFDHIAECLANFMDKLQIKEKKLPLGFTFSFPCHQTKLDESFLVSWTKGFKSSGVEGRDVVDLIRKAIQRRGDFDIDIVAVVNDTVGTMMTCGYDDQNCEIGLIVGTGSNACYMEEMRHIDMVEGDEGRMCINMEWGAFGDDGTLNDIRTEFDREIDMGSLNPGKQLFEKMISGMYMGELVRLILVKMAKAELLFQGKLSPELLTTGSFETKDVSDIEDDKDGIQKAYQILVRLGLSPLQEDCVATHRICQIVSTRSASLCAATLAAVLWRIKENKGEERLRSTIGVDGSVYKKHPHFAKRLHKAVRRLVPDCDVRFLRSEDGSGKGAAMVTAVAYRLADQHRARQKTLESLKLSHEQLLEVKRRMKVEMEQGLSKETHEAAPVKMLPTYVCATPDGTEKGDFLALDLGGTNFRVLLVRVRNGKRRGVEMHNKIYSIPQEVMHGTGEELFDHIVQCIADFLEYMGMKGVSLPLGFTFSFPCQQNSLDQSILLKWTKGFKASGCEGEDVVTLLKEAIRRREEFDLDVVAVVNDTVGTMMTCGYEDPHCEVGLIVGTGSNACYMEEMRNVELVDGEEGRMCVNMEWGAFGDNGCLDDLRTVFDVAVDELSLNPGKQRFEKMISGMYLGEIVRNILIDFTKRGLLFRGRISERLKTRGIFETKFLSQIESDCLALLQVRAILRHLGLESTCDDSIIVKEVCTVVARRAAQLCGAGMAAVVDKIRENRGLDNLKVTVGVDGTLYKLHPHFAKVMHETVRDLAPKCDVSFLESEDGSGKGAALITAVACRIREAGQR
Chain of Protein cereblon/Hexokinase-2 (Mus musculus) (Q8C7D2 whole entry, looked up): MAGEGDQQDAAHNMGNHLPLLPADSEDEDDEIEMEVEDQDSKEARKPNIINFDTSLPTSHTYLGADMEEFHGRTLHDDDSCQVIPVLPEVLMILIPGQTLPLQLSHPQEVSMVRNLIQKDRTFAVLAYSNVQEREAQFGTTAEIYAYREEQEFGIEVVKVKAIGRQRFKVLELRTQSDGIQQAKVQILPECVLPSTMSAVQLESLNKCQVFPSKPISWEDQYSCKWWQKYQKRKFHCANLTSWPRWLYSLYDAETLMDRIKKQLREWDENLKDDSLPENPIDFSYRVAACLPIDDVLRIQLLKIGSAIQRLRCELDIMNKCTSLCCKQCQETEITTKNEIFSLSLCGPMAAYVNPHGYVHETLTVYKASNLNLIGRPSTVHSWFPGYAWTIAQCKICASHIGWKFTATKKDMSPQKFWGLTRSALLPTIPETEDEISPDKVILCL

As usually defined, the DC50 is the concentration at which degradation of the target reaches its halfway point. The low end stands for a more potent degrader, the high end for a less potent degrader. Consider `O=C1CCC(N2C(=O)c3cccc(NCCCCNC(=O)c4nn(Cc5ccc(Cl)cc5Cl)c5ccccc45)c3C2=O)C(=O)N1` (configuration not stated), for which the outcome (in the series with MDA-MB-231 [1]; in series [3]; in series [4]; in the series with 4T1 [6]; with 4T1 [7]; in the series with 4T1 [9]) was Active. Further, the outcome in the series on 4T1 [10], in the series on 4T1 [11], in the series with 4T1 [12], in the series with MDA-MB-231 [13] and in the series on MDA-MB-231 [14] was Active. The inhibition result with HUVEC-T1 cell is “inactive”. The Activity entry in series [2] was “Dose-Dependent Effect”; in the series on 4T1 [8], 43%; in series [15], “Non-Toxic”; in series [16] it was “Non-Toxic”; in series [17] it was “Non-Toxic”; in series [18], “Non-Toxic”. Besides, the Activity result in [19] and in series [20] was “Non-Toxic” throughout. The molecule further registered a DC50 on Hexokinase-2 of 790 nM. Further, in the series on 4T1 [5], the inhibition entry was “Active”.
